Structures can show the parent of a compound that is named as a salt. Activity calls are given as the source filed them. Cut-off read from the data, not from the text of the source, for most assays here: actives have a measured Kd and inactives only a lower limit.

Assay [1] concerns the target Tyrosine-protein kinase Fer (Homo sapiens, UniProt P16591).
Assay [2] addresses T1, Peroxisomal acyl-coenzyme A oxidase 3 (Homo sapiens, UniProt O15254).
T1 sequence (O15254 whole entry): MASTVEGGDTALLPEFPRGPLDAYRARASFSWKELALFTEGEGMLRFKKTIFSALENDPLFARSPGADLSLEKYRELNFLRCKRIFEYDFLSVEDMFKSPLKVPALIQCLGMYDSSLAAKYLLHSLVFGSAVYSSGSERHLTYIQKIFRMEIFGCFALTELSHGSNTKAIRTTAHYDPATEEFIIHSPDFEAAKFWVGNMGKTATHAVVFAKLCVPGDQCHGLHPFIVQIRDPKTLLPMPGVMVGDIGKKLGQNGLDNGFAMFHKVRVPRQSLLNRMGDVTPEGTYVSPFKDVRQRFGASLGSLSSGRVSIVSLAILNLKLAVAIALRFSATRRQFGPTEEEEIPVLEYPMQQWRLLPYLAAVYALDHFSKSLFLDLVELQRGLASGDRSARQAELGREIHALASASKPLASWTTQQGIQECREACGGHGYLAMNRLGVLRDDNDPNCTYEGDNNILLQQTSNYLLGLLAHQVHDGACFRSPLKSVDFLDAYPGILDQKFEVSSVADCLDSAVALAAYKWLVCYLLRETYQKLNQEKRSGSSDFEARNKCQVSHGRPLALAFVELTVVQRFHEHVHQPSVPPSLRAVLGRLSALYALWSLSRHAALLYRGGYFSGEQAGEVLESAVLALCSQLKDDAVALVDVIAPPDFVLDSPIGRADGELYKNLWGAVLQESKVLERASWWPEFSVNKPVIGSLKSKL

In assay [3] the target is Tyrosine-protein kinase Lyn (Homo sapiens, UniProt P07948).
The target in assay [4] is T2, Serine/threonine-protein kinase 3 (Homo sapiens, UniProt Q13188).
T2 sequence (Q13188 whole entry): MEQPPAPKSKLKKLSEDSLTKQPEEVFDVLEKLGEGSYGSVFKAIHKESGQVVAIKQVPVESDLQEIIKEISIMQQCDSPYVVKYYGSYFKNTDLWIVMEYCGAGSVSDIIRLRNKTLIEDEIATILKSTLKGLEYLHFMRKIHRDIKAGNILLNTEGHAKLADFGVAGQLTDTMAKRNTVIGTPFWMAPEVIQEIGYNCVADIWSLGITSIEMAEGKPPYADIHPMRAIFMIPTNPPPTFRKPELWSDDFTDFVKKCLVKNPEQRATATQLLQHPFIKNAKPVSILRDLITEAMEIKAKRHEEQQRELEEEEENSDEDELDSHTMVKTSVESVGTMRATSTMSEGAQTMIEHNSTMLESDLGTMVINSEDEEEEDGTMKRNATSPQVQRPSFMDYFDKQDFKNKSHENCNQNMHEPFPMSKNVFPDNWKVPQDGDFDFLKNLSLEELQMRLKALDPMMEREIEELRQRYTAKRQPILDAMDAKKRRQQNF

Assay [5] deals with U5 small nuclear ribonucleoprotein 200 kDa helicase (Homo sapiens, UniProt O75643).
For assay [6], the target named is Tyrosine-protein kinase SYK (Homo sapiens, UniProt P43405).
Assay [7] concerns the target Serine/threonine-protein kinase N2 (Homo sapiens, UniProt Q16513).
In assay [8] the target is T3, ATP-dependent RNA helicase DDX1 (Homo sapiens, UniProt Q92499).
T3 sequence (Q92499 whole entry): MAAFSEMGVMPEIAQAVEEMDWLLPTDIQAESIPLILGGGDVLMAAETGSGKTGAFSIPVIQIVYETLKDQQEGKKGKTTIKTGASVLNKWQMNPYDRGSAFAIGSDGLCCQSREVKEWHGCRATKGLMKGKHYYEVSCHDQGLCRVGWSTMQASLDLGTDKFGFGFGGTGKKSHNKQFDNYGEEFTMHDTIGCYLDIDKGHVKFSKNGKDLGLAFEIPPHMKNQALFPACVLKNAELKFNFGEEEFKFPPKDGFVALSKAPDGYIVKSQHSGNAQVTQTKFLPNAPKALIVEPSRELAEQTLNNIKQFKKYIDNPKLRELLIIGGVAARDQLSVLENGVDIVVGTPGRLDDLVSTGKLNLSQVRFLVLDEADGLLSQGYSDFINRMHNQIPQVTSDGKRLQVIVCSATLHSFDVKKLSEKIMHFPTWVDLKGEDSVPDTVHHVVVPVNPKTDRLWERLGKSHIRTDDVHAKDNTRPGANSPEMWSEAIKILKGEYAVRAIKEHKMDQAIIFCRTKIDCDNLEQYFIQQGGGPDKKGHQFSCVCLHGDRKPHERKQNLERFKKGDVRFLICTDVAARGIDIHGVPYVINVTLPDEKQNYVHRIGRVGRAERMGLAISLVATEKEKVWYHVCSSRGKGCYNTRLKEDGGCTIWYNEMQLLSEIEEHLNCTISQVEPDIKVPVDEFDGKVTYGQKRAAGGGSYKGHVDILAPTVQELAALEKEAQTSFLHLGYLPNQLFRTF

Assay [9] deals with T4, Beta-adrenergic receptor kinase 1 (Homo sapiens, UniProt P25098).
T4 sequence (P25098 whole entry): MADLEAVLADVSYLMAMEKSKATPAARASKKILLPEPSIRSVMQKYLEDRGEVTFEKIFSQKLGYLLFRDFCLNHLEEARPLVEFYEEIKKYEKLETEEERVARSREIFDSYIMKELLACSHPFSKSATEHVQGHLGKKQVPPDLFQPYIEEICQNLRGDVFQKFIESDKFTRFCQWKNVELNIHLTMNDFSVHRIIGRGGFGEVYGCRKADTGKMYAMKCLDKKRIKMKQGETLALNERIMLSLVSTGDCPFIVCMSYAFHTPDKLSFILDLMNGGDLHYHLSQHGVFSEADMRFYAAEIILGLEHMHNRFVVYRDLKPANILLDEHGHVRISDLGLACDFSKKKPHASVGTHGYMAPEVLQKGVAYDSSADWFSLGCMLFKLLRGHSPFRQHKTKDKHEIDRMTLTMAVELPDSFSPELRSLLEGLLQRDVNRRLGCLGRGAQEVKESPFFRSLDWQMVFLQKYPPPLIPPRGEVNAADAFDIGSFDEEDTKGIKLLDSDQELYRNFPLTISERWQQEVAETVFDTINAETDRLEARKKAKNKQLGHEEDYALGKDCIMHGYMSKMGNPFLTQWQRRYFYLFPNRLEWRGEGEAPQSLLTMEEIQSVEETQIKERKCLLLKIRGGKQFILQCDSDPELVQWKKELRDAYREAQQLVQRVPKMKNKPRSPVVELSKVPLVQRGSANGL

Assay [10] addresses BMP-2-inducible protein kinase (Homo sapiens, UniProt Q9NSY1).
Note: in the data inactive means no Kd found up to 30 µM.

Chain of U5 small nuclear ribonucleoprotein 200 kDa helicase (O75643 whole entry): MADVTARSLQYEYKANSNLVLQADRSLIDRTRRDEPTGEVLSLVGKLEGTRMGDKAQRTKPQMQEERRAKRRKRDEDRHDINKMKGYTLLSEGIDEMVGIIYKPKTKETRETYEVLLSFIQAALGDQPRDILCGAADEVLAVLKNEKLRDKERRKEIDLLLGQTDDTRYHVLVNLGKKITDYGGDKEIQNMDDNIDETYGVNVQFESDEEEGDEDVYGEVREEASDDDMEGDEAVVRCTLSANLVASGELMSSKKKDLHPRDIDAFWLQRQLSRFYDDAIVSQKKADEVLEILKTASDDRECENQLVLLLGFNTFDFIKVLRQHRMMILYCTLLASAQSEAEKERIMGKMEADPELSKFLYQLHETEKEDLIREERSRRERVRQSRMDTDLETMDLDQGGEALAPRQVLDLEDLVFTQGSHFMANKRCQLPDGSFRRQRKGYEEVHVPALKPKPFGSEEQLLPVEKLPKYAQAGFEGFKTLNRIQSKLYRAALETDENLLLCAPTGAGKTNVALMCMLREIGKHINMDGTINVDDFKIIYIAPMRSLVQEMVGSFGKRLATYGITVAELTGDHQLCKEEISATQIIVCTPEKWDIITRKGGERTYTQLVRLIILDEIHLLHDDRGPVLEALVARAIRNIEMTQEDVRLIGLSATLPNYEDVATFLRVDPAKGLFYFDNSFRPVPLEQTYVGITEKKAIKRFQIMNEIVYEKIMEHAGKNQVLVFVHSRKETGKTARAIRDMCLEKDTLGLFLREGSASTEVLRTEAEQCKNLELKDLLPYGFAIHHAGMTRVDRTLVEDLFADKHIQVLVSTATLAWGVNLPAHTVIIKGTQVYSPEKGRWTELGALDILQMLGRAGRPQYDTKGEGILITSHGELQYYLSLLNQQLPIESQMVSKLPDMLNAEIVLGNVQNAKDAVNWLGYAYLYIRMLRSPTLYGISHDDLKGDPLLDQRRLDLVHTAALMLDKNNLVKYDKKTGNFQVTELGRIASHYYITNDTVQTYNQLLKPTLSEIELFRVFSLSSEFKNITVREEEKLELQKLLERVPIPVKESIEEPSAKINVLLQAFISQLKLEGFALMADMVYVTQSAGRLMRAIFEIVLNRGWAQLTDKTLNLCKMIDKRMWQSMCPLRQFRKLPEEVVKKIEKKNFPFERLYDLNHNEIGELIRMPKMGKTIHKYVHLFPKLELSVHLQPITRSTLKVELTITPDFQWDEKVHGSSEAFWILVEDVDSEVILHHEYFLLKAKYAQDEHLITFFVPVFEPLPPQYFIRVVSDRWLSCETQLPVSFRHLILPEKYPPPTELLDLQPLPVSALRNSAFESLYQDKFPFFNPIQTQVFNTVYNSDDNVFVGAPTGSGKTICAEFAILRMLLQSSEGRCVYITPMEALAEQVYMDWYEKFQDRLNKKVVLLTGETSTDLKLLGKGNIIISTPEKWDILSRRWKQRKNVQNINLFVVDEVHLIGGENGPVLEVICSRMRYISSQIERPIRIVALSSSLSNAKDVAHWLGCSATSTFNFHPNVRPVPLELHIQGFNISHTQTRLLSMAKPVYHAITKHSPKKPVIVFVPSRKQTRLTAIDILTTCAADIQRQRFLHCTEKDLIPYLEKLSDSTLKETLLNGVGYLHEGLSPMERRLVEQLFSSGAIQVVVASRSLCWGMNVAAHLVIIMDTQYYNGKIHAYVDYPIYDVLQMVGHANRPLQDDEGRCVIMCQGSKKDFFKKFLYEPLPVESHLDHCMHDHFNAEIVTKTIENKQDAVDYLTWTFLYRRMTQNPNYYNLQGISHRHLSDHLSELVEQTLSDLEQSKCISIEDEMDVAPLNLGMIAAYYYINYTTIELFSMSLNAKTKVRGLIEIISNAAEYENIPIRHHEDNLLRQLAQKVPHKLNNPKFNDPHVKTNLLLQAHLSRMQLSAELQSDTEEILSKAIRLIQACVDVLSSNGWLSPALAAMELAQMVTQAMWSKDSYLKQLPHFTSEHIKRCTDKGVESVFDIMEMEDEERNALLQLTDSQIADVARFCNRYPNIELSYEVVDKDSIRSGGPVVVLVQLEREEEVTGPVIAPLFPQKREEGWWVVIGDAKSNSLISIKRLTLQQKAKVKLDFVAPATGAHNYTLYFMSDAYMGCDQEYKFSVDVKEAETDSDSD
Chain of Serine/threonine-protein kinase N2 (Q16513 whole entry): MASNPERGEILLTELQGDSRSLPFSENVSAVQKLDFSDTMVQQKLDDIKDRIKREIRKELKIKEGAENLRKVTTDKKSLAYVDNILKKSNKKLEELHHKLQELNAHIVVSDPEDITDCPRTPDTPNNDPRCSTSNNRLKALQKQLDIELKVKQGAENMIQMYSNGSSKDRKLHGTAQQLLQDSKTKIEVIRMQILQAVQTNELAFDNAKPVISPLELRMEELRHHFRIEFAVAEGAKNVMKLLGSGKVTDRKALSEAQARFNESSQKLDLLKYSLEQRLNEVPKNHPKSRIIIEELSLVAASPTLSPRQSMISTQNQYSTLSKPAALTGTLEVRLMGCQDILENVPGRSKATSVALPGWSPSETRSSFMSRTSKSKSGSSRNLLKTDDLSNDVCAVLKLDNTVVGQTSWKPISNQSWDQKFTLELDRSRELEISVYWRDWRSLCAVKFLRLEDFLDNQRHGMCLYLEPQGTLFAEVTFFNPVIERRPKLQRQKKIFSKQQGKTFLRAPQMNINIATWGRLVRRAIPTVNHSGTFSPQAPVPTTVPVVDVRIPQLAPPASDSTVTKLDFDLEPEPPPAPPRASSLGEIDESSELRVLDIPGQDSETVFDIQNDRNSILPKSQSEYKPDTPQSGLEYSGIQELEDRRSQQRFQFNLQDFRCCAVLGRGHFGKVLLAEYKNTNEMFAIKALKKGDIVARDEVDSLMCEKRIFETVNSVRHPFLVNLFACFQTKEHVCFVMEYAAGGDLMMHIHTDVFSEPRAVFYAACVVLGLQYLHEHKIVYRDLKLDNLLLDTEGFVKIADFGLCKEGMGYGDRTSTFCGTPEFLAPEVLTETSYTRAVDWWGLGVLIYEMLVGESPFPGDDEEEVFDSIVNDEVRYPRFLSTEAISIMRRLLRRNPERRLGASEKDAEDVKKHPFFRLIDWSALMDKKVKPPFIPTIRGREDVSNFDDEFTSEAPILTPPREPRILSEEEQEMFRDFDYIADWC
Chain of BMP-2-inducible protein kinase (Q9NSY1 whole entry): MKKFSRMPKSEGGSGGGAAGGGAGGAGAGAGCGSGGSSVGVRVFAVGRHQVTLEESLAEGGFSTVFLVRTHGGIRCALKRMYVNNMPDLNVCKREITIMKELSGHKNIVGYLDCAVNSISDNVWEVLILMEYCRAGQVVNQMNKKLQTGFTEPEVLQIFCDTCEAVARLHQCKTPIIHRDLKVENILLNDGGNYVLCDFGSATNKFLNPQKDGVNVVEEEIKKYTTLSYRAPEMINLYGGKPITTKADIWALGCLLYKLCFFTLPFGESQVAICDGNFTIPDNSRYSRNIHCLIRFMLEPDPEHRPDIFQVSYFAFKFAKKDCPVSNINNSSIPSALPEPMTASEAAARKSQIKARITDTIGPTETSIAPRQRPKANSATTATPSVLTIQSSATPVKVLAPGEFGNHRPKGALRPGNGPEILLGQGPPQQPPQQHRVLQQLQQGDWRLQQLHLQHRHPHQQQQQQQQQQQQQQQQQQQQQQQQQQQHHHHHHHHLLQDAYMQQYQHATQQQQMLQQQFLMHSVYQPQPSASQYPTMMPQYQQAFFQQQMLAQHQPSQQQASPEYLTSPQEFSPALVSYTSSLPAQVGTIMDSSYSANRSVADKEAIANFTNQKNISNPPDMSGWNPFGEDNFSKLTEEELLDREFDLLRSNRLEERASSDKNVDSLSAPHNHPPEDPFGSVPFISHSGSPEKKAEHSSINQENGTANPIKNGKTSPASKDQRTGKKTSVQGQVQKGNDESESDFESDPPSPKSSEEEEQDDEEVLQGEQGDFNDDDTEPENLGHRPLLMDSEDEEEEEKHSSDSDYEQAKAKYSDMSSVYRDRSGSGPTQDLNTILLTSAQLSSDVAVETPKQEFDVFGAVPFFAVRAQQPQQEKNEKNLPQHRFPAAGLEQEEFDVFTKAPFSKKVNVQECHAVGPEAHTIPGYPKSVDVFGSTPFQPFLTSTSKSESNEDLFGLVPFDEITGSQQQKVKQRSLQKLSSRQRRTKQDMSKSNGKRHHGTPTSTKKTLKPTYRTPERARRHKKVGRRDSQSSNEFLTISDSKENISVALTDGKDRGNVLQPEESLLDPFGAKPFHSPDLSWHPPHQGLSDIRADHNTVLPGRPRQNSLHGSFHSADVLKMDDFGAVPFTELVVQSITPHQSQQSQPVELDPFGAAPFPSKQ
Chain of Tyrosine-protein kinase Fer (P16591 whole entry): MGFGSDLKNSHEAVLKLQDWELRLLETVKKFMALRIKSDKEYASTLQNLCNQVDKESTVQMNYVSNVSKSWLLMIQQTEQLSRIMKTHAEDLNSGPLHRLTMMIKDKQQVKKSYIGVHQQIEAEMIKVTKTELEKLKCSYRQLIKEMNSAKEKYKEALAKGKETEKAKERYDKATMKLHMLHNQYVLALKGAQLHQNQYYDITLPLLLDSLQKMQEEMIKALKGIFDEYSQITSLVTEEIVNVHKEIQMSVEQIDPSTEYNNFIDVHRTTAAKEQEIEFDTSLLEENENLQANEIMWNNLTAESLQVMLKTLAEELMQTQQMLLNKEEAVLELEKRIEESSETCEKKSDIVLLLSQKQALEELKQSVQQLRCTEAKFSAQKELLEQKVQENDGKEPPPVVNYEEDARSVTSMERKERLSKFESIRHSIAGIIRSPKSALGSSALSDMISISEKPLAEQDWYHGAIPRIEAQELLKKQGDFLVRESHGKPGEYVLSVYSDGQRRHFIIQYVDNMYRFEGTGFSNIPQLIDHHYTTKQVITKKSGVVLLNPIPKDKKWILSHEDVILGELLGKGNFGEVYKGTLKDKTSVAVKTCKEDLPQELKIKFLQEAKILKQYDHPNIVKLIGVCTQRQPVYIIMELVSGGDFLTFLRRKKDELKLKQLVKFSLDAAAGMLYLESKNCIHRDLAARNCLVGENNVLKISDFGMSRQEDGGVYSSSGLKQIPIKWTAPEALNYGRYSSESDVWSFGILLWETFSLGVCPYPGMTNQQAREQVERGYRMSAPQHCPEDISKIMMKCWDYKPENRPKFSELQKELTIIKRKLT

`C#Cc1cccc(Nc2ncnc3cc(OC)c(OCCCCCCC(=O)NO)cc23)c1` [CUDC-101]: the Kd in assay [1], in [2], in assay [3], in assay [4], in [5] and in assay [6] was > 30 µM (inactive) in each case. For the same molecule, the Kd in [7], in assay [8], in assay [9] and in [10] was > 30 µM (inactive) in each case.
Consider `CCS(=O)(=O)N1CCN(c2ccc(Nc3ncc(C(N)=O)c(NC4CC4)n3)cc2)CC1` [Cerdulatinib Hydrochloride], for which the Kd (as a rule, a measure of binding affinity in units of concentration) in [1] was > 30 µM (inactive); in assay [2], > 30 µM (inactive); in assay [3], > 30 µM (inactive); in [4] it was 0.062 µM (active); in assay [5] it was > 30 µM (inactive); in assay [6], 0.44 µM (active). Moreover, the Kd in assay [7] was > 30 µM (inactive); in assay [8] it was > 30 µM (inactive); in assay [9] it was > 30 µM (inactive); in [10] it was 0.0008 µM (active).
Regarding `Cc1nc2cc(-n3ncc(C(=O)c4cc5ccccc5[nH]4)c3N)ccc2[nH]1` [FGFR INHIBITOR DEBIO 1347], the Kd in assay [1], in assay [2], in [3], in assay [4], in assay [5] and in assay [6] was > 30 µM (inactive) each time. Further, the Kd in assay [7], in assay [8], in assay [9] and in assay [10] was > 30 µM (inactive) each time.
Consider `O=C(Nc1nc2cccc(-c3ccc(CN4CCS(=O)(=O)CC4)cc3)n2n1)C1CC1` [FILGOTINIB], for which the Kd in assay [1], in assay [2], in [3], in [4], in assay [5] and in assay [6] was > 30 µM (inactive) throughout. Besides, the Kd in assay [7] is > 30 µM (inactive); in assay [8] it was > 30 µM (inactive); in assay [9], > 30 µM (inactive); in [10] it was 6.59 µM (active).
For the molecule `Cc1cccc(-c2nn3c(c2-c2ccnc4ccc(C(N)=O)cc24)CCC3)n1` [GALUNISERTIB], the Kd in [1], in assay [2], in assay [3], in assay [4], in assay [5] and in assay [6] was > 30 µM (inactive) in each case. Besides, the Kd in assay [7], in assay [8], in assay [9] and in [10] was > 30 µM (inactive) each time.
On to `COc1ccc(S(=O)(=O)N(C(C)=O)c2ccccc2/C=C/c2cc[n+]([O-])cc2)cc1` [HMN-214], for which the Kd in assay [1], in assay [2], in [3], in assay [4], in assay [5] and in [6] was > 30 µM (inactive) throughout. For the same molecule, the Kd in assay [7], in [8], in assay [9] and in assay [10] was > 30 µM (inactive) throughout.
Take `CNC(=O)c1cccc2cc(Oc3ccnc4cc(OCC5(N)CC5)c(OC)cc34)ccc12` [LUCITANIB]: the Kd in [1] is > 30 µM (inactive); in assay [2] it was > 30 µM (inactive); in assay [3] it was 2.76 µM (active); in assay [4], > 30 µM (inactive); in assay [5] it was > 30 µM (inactive); in assay [6], > 30 µM (inactive). Moreover, the Kd in assay [7], in assay [8], in [9] and in assay [10] was > 30 µM (inactive) throughout.
For the molecule `NC1(c2ccc(-c3nc4ccn5c(=O)[nH]nc5c4cc3-c3ccccc3)cc2)CCC1` [MK-2206], the Kd in [1], in [2], in [3], in assay [4], in [5] and in [6] was > 30 µM (inactive) in each case. Besides, the Kd in assay [7], in [8], in assay [9] and in assay [10] was > 30 µM (inactive) each time.
As for `CN(C[C@@H]1COCCO1)S(=O)(=O)Nc1ccc2ccc3ncc(-c4cnn(C)c4)cc3c(=O)c2c1` [MK-2461], the Kd in [1], in assay [2], in assay [3], in assay [4], in assay [5] and in [6] was > 30 µM (inactive) each time. Besides, the Kd in [7], in assay [8], in [9] and in [10] was > 30 µM (inactive) each time.
For the molecule `Cn1cc(-c2cnc3ccc4ccc(CS(=O)(=O)NCc5ccccn5)cc4c(=O)c3c2)cn1` [MK-8033], the Kd in assay [1], in assay [2], in assay [3], in assay [4], in assay [5] and in [6] was > 30 µM (inactive) in each case. The Kd in [7], in assay [8], in assay [9] and in assay [10] was > 30 µM (inactive) throughout.

For the origin of these results see ChEMBL document CHEMBL3991601, “The target landscape of clinical kinase drugs” (Science, 2017).
